Laboratory results taken from the supplement of paper PMC13380429.

Legend:
Conditions in all cases: 72 h
[1] = test system: Calu-3; test: cell viability relative to DMSO; higher = less toxic
[2] = test system: HepG2; test: as above
[3] = test system: Vero E6; test: as above
[4] = test system: Calu-3; test: relative viability EC50 (midpoint between 100% and the lowest measured viability); higher = less toxic
[5] = test system: HepG2; test: as above
[6] = test system: Vero E6; test: as above
[7] = test system: Calu-3; test: drug sensitivity score (DSS) for viability; higher = more toxic; extreme values may be limits of the assay
[8] = test system: HepG2; test: as above
[9] = test system: Vero E6; test: as above
[10] = test system: Caco-2; test: cell viability relative to DMSO; higher = less toxic
[11] = test system: U2OS; test: as above
[12] = test system: U2OS; test: relative viability EC50 (midpoint between 100% and the lowest measured viability); higher = less toxic
[13] = test system: Caco-2; test: drug sensitivity score (DSS) for viability; higher = more toxic; extreme values may be limits of the assay
[14] = test system: U2OS; test: as above
[15] = test system: Caco-2; test: relative viability EC50 (midpoint between 100% and the lowest measured viability); higher = less toxic

| Compound | cell viability ([1]; 1 nM) [%] | cell viability ([1]; 10 nM) [%] | cell viability ([1]; 100 nM) [%] | cell viability ([1]; 1000 nM) [%] | cell viability ([1]; 10000 nM) [%] | cell viability ([2]; 1 nM) [%] | cell viability ([2]; 10 nM) [%] | cell viability ([2]; 100 nM) [%] | cell viability ([2]; 1000 nM) [%] | cell viability ([2]; 10000 nM) [%] | cell viability ([3]; 1 nM) [%] | cell viability ([3]; 10 nM) [%] | cell viability ([3]; 100 nM) [%] | cell viability ([3]; 1000 nM) [%] | cell viability ([3]; 10000 nM) [%] | relative viability EC50 [4] [µM] | relative viability EC50 [5] [µM] | relative viability EC50 [6] [µM] | drug sensitivity score [7] | drug sensitivity score [8] | drug sensitivity score [9] | cell viability ([10]; 1 nM) [%] | cell viability ([10]; 10 nM) [%] | cell viability ([10]; 100 nM) [%] | cell viability ([10]; 1000 nM) [%] | cell viability ([10]; 10000 nM) [%] | cell viability ([11]; 1 nM) [%] | cell viability ([11]; 10 nM) [%] | cell viability ([11]; 100 nM) [%] | cell viability ([11]; 1000 nM) [%] | cell viability ([11]; 10000 nM) [%] | relative viability EC50 [12] [µM] | drug sensitivity score [13] | drug sensitivity score [14] | relative viability EC50 [15] [µM] |
| --- | --- | --- | --- | --- | --- | --- | --- | --- | --- | --- | --- | --- | --- | --- | --- | --- | --- | --- | --- | --- | --- | --- | --- | --- | --- | --- | --- | --- | --- | --- | --- | --- | --- | --- | --- |
| NCC1(CC(=O)O)CCCCC1 [gabapentin] | 120 | 118 | 100 | 110 | 94.4 | 102 | 97.6 | 94.2 | 89.3 | 108 | 96 | 93.6 | 89.3 | 94.3 | 92.5 | > 10 | > 10 | > 10 | 0 | 0 | 0 |  |  |  |  |  |  |  |  |  |  |  |  |  |  |
| CN(C)C(=O)C(=O)c1cn(C)c2cc(Cl)c(C(=O)N3CCC(Cc4ccc(F)cc4)CC3)cc12 [SX-011] | 94.6 | 108 | 116 | 97.3 | 91.2 | 112 | 102 | 104 | 102 | 86.5 | 110 | 94.6 | 100 | 93.2 | 89.2 | > 10 | > 10 | > 10 | 0 | 0.1 | 0.1 | 93.9 | 96.3 | 98.3 | 93.5 | 70.4 | 99.1 | 100 | 97.1 | 102 | 91.2 | > 10 | 2.3 | 0 |  |
| CN1C[C@H](C(=O)N[C@]2(C)O[C@@]3(O)[C@@H]4CCCN4C(=O)[C@H](Cc4ccccc4)N3C2=O)C[C@@H]2c3cccc4[nH]cc(c34)C[C@H]21 [dihydroergotamine] | 102 | 96.9 | 96.3 | 95.1 | 114 | 109 | 113 | 105 | 109 | 97.3 |  |  |  |  |  | > 10 | > 10 |  | 0 | 0 |  | 102 | 98.3 | 108 | 111 | 99.7 |  |  |  |  |  |  | 0 |  | > 10 |
| CCOc1cc(N2CCC(O)CC2)ccc1Nc1ncc2c(n1)N(C)c1ccccc1C(=O)N2C [XMD8-92] | 90.2 | 112 | 98.1 | 109 | 77.5 | 101 | 99.4 | 102 | 104 | 74.4 | 99.7 | 93.2 | 99.7 | 93.5 | 41.2 | > 10 |  | 2.26 | 0.5 | 0.8 | 4.3 | 96.1 | 93 | 90 | 89.8 | 84.6 | 92.7 | 105 | 93.6 | 94.6 | 73.3 |  | 0.9 | 1.8 | > 10 |
| CCCCCCCCCCCCCC(=O)OC(C)C [isopropyl-myristate] | 98.3 | 105 | 101 | 105 | 94.1 |  |  |  |  |  | 101 | 104 | 91.5 | 96.8 | 96.4 | > 10 |  | > 10 | 0 |  | 0 | 111 | 97 | 110 | 96.9 | 98.6 |  |  |  |  |  |  | 0 |  | > 10 |
| Nc1ccn([C@@H]2O[C@H](CO)[C@@H](O)C2(F)F)c(=O)n1 [gemcitabine] | 97.5 | 106 | 86.5 | 63.9 | 40.8 | 99.5 | 71.2 | 38.3 | 38.9 | 40.3 | 102 | 102 | 62.3 | 59.4 | 61.4 | 0.529 | 0.0105 |  | 8.2 | 23.1 | 11.9 | 100 | 89 | 72.5 | 66.2 | 72 | 97 | 105 | 72.9 | 67.8 | 74.1 |  | 9.9 | 8.6 |  |
| COc1cc2nc(C3CC3)nc(N3CCN(c4ccccc4OC)CC3)c2cc1OC [ML314] | 96.6 | 101 | 102 | 92.7 | 78.3 | 102 | 92.4 | 100 | 91.6 | 54.1 | 96.9 | 109 | 95 | 87.6 | 62.9 | > 10 |  |  | 1.6 | 3.8 | 3.1 | 100 | 91.5 | 97.9 | 94.8 | 59 | 96.5 | 97.4 | 91.5 | 98.2 | 87.1 | > 10 | 2.9 | 0 |  |
| CNC(=O)[C@@H](NC(=O)[C@H](CC(C)C)[C@H](O)C(=O)NO)C(C)(C)C [marimastat] | 96.2 | 102 | 86.4 | 87.4 | 81.3 | 103 | 99.7 | 121 | 106 | 113 | 108 | 103 | 100 | 104 | 90.7 | > 10 | > 10 | > 10 | 3.6 | 0 | 0 | 79.5 | 106 | 89.9 | 99.9 | 70.5 | 98.7 | 100 | 92.9 | 95.9 | 91.5 | > 10 | 1.3 | 0 |  |
